Assay results: ChEMBL document CHEMBL3774360, “Potent multitarget FAAH-COX inhibitors: Design and structure-activity relationship studies” (Eur J Med Chem, 2016)
Calls of active or inactive are those of the source. The calls are words filed in the database; no cut-off is given here.

Experiments:
Homo sapiens [1] = species: Homo sapiens; test: Binding affinity to P2Y receptor (unknown origin) at 10 uM by radioligand binding assay
Homo sapiens [2] = species: Homo sapiens; test: Binding affinity to human sigma receptor at 10 uM by radioligand binding assay
[3] = target: Glucocorticoid receptor (Homo sapiens) (UniProt P04150); test: Binding affinity to human glucocorticoid receptor at 10 uM by radioligand binding assay
[4] = target: Thyrotropin-releasing hormone receptor (Homo sapiens) (UniProt P34981); test: Binding affinity to human TRH1 receptor at 10 uM by radioligand binding assay
[5] = target: Vasopressin V1a receptor (Homo sapiens) (UniProt P37288); test: Binding affinity to human V1a receptor at 10 uM by radioligand binding assay
Vasopressin V1a receptor (Homo sapiens), sequence (P37288 whole entry, looked up): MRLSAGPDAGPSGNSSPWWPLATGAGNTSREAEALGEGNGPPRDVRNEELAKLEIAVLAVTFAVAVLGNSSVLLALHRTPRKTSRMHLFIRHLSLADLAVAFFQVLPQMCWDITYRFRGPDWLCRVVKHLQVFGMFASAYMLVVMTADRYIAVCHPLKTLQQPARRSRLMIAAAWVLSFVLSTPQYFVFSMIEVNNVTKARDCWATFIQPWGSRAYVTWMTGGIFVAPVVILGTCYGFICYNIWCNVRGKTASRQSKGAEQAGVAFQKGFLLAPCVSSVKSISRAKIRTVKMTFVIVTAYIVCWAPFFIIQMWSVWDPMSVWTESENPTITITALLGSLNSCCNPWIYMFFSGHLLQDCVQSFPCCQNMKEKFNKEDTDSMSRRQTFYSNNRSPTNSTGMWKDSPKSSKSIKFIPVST

Homo sapiens [6] = species: Homo sapiens; test: Binding affinity to L-type calcium channel diltiazem binding site (unknown origin) at 10 uM by radioligand binding assay
[7] = target: Secretory phospholipase A2 receptor (Homo sapiens) (UniProt Q13018); test: Binding affinity to human sPLA2 at 10 uM
[8] = target: Nitric oxide synthase, inducible (Homo sapiens) (UniProt P35228); test: Binding affinity to inducible NOS (unknown origin) at 10 uM
Nitric oxide synthase, inducible (Homo sapiens), sequence (P35228 whole entry): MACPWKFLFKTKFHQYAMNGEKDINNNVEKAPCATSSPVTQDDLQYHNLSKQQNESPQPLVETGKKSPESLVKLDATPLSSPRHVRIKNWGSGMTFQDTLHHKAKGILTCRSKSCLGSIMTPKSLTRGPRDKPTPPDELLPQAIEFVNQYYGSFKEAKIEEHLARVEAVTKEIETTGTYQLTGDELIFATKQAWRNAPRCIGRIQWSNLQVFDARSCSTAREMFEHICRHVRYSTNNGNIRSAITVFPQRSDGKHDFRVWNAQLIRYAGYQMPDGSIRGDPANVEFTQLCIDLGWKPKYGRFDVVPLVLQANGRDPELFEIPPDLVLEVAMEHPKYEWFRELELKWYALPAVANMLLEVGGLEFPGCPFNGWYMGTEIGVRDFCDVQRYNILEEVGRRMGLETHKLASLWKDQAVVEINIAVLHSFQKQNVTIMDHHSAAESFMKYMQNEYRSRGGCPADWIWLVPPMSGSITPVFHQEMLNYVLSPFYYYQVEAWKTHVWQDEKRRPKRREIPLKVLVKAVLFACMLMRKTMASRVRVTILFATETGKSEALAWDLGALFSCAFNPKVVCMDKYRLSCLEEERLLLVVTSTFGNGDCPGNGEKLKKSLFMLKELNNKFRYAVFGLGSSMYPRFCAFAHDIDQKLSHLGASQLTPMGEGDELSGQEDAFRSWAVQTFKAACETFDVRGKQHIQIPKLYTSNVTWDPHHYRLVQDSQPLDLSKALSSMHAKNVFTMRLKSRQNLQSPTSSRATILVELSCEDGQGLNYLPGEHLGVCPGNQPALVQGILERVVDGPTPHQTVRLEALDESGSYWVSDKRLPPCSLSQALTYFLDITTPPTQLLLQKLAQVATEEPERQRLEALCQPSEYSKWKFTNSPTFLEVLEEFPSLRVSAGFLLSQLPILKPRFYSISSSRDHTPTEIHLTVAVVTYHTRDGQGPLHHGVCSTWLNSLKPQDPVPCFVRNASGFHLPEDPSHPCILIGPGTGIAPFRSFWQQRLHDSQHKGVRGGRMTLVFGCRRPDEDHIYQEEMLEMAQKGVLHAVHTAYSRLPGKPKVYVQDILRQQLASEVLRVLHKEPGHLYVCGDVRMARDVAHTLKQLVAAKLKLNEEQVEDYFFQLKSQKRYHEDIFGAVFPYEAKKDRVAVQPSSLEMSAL

[9] = target: cGMP-specific 3',5'-cyclic phosphodiesterase (Homo sapiens) (UniProt O76074); test: Binding affinity to human PDE5 at 10 uM
[10] = target: Tyrosine-protein phosphatase non-receptor type 1 (Homo sapiens) (UniProt P18031); test: Binding affinity to PTPN1 (unknown origin) at 10 uM
Tyrosine-protein phosphatase non-receptor type 1 (Homo sapiens), sequence (P18031 whole entry): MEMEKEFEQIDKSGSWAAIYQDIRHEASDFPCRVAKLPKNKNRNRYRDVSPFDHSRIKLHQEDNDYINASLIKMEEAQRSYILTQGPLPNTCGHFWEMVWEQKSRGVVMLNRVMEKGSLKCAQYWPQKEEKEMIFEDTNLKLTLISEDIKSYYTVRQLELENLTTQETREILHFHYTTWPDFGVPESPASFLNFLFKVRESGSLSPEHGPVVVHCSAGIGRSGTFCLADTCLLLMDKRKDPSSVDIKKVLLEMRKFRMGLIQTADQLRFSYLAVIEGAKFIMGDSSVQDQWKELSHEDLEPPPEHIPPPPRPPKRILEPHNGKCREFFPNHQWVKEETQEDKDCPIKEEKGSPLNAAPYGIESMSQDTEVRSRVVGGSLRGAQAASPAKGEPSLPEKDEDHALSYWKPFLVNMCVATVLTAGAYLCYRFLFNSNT

[11] = target: Protein kinase C alpha type (Homo sapiens) (UniProt P17252); test: Binding affinity to human PKC-alpha at 10 uM
[12] = target: Catechol O-methyltransferase (Homo sapiens) (UniProt P21964); test: Binding affinity to COMT (unknown origin) at 10 uM
Catechol O-methyltransferase (Homo sapiens), sequence (P21964 whole entry): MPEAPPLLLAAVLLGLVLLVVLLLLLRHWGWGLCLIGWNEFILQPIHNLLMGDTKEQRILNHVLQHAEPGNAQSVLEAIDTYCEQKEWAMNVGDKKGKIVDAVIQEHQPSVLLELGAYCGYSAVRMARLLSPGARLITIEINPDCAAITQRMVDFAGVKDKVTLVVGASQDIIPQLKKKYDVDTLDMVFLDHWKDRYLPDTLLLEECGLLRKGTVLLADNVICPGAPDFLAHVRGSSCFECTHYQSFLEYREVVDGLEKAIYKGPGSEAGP

[13] = target: Amine oxidase [flavin-containing] B (Homo sapiens, UniProt P27338); test: Binding affinity to recombinant human MAO-B at 10 uM
Amine oxidase [flavin-containing] B, sequence (P27338 whole entry): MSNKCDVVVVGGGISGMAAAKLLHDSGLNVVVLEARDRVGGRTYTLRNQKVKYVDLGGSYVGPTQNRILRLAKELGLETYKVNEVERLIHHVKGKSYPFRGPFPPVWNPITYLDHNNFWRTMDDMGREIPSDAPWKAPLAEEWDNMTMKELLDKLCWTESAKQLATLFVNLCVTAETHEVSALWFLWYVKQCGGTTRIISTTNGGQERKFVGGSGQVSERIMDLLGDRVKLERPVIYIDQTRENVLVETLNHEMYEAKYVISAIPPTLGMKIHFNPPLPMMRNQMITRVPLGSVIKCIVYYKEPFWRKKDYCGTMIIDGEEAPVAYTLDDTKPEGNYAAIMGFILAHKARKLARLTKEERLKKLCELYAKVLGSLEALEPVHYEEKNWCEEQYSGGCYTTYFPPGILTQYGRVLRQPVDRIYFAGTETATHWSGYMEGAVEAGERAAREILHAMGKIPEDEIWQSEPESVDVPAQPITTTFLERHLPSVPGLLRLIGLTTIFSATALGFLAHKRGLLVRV

[14] = target: Tyrosine 3-monooxygenase (Homo sapiens) (UniProt P07101); test: Binding affinity to tyrosine hydroxylase (unknown origin) at 10 uM
[15] = target: Histone deacetylase 3 (Homo sapiens) (UniProt O15379); test: Binding affinity to human HDAC3 at 10 uM
[16] = target: Histone deacetylase 11 (Homo sapiens) (UniProt Q96DB2); test: Binding affinity to human HDAC11 at 10 uM
Histone deacetylase 11 (Homo sapiens), sequence (Q96DB2 whole entry): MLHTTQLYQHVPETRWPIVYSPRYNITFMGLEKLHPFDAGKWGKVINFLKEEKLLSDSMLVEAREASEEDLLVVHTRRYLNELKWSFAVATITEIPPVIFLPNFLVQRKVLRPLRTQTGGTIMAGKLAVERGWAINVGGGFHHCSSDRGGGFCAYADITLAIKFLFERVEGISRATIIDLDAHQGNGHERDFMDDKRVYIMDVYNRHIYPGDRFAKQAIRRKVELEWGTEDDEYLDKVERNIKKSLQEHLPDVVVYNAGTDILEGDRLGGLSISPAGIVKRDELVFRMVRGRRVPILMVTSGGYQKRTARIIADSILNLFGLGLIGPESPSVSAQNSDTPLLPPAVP

[17] = target: NAD-dependent protein deacetylase sirtuin-2 (Homo sapiens) (UniProt Q8IXJ6); test: Inhibition of human sirtuin 2 at 10 uM; design: scale not given: the % may be the effect or the level left
[18] = target: Adenylate cyclase (Homo sapiens) (UniProt Q8NFM4+O60503+Q08828+P40145+O60266+O95622+O43306+Q08462+P51828); test: Activation of adenylyl cyclase (unknown origin) at 10 uM; assay type: protein assay
[19] = target: T1, Prostaglandin G/H synthase 1 (Ovis aries, UniProt P05979); test: Inhibition of ovine COX1 assessed as production of PGF2-alpha preincubated with compound followed by the addition of 5 uM arachidonic acid as substrate by enzyme immunoassay
T1 sequence (P05979 whole entry): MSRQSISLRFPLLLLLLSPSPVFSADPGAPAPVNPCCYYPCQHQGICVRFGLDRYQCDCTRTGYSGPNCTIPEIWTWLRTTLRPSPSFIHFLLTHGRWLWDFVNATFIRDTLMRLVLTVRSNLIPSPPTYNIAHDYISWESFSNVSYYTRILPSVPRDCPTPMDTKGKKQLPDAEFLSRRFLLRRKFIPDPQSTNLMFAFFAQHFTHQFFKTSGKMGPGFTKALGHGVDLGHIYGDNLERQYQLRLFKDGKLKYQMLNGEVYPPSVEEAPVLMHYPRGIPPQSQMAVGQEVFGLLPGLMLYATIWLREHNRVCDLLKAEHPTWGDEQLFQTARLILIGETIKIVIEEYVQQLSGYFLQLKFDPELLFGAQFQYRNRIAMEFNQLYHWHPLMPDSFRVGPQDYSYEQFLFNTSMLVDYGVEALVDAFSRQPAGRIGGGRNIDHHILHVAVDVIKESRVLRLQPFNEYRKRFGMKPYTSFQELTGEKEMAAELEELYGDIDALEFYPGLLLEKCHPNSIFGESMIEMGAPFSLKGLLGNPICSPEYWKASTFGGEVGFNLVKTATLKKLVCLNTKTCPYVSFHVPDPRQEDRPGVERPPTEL

Mus musculus = test: In-vivo inhibition of COX in mouse plasma assessed as decrease in 6-keto-PGF1-alpha level at 1 mg/kg, iv after 1 hr by LC-MS/MS analysis; assay type: functional, organism-based
[20] = target: Adenosine receptor A1 (Homo sapiens) (UniProt P30542); test: Binding affinity to human adenosine A1 receptor at 10 uM by radioligand binding assay
Adenosine receptor A1 (Homo sapiens), sequence (P30542 whole entry, the tested form may be a part): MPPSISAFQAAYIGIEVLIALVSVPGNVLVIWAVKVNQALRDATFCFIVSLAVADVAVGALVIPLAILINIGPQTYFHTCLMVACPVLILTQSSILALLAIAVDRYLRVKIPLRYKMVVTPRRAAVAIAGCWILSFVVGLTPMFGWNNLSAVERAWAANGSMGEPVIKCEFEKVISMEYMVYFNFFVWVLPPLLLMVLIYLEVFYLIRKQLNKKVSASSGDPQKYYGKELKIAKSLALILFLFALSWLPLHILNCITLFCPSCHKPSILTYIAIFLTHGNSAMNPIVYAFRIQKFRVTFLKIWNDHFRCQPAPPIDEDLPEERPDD

[21] = target: Transmembrane domain-containing protein TMIGD3 (Homo sapiens) (UniProt P0DMS9); test: Binding affinity to human adenosine A3 receptor at 10 uM by radioligand binding assay
Transmembrane domain-containing protein TMIGD3 (Homo sapiens), sequence (P0DMS9 whole entry, the tested form may be a part): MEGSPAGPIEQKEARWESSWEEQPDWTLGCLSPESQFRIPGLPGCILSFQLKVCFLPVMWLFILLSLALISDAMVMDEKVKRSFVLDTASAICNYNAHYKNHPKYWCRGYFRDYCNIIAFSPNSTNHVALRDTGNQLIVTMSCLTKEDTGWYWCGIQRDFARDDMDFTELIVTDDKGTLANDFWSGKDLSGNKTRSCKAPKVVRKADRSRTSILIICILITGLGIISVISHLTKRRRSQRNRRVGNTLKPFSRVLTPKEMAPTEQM

[22] = target: Type-2 angiotensin II receptor (Homo sapiens) (UniProt P50052); test: Binding affinity to human angiotensin receptor 2 at 10 uM by radioligand binding assay
Homo sapiens [23] = species: Homo sapiens; test: Binding affinity to central-type benzodiazepine receptor (unknown origin) at 10 uM by radioligand binding assay
[24] = target: B1 bradykinin receptor (Homo sapiens) (UniProt P46663); test: Binding affinity to human bradykinin 1 receptor at 10 uM by radioligand binding assay
[25] = target: Cholecystokinin receptor type A (Homo sapiens) (UniProt P32238); test: Binding affinity to human cholecystokinin receptor type A at 10 uM by radioligand binding assay
[26] = target: D(1A) dopamine receptor (Homo sapiens) (UniProt P21728); test: Binding affinity to human dopamine D1 receptor at 10 uM by radioligand binding assay
[27] = target: Endothelin-1 receptor (Homo sapiens) (UniProt P25101); test: Binding affinity to human ETA receptor at 10 uM by radioligand binding assay
[28] = target: Endothelin receptor type B (Homo sapiens) (UniProt P24530); test: Binding affinity to human ETB receptor at 10 uM by radioligand binding assay
Endothelin receptor type B (Homo sapiens), sequence (P24530 whole entry): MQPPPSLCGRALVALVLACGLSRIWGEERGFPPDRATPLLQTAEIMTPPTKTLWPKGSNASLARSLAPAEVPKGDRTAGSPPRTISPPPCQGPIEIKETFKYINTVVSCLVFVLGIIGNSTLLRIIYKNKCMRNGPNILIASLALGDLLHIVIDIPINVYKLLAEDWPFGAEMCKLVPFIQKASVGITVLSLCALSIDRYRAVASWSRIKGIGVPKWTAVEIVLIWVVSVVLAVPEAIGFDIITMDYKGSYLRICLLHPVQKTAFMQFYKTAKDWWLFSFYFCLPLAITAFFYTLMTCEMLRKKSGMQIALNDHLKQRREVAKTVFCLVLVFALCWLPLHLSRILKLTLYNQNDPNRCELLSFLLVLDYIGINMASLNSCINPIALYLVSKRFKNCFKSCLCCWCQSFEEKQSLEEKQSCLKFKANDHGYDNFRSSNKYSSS

[29] = target: Glutamate [NMDA] receptor (Homo sapiens) (UniProt Q05586+Q12879+Q13224+O15399+O60391+Q14957+Q8TCU5); test: Binding affinity to NMDA receptor (unknown origin) at 10 uM by radioligand binding assay
[30] = target: Cysteinyl leukotriene receptor 1 (Homo sapiens) (UniProt Q9Y271); test: Binding affinity to human cysteinyl leukotriene receptor 1 at 10 uM by radioligand binding assay
[31] = target: Substance-K receptor (Homo sapiens) (UniProt P21452); test: Binding affinity to human NK2 receptor at 10 uM by radioligand binding assay
Substance-K receptor (Homo sapiens), sequence (P21452 whole entry): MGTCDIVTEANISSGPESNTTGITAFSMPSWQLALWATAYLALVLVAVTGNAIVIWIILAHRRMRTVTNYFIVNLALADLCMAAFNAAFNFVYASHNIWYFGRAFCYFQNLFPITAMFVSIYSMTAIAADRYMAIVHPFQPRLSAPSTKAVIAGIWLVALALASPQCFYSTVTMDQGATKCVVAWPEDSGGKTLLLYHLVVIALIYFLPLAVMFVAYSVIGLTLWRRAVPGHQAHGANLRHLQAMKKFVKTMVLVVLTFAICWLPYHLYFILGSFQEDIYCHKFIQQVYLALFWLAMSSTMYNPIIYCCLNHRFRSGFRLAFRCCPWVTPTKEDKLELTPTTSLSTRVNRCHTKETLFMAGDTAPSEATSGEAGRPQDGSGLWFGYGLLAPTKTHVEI

Homo sapiens [32] = species: Homo sapiens; test: Binding affinity to neuropeptide Y receptor (unknown origin) at 10 uM by radioligand binding assay
[33] = target: Nociceptin receptor (Homo sapiens) (UniProt P41146); test: Binding affinity to human NOP receptor at 10 uM by radioligand binding assay
Nociceptin receptor (Homo sapiens), sequence (P41146 whole entry): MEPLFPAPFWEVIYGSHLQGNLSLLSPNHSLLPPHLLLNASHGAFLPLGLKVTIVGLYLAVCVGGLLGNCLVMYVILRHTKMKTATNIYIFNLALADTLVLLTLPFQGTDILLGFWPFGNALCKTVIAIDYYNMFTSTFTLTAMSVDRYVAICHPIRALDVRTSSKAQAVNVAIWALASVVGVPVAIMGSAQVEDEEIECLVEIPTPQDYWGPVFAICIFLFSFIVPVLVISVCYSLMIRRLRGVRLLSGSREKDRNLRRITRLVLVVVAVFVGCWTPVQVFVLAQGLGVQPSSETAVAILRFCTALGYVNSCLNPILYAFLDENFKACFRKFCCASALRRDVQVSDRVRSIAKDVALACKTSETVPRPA

Homo sapiens [34] = species: Homo sapiens; test: Binding affinity to PCP receptor (unknown origin) at 10 uM by radioligand binding assay

## CCCCCCNC(=O)Oc1cccc(-c2ccc([C@H](C)C(=O)O)cc2F)c1
Homo sapiens [1]
  Activity: 17.7%
Homo sapiens [2]
  Activity: -6.9%
[3]
  Activity: 2.3%
[4]
  Activity: -14.9%
[5]
  Activity: 0.4%
Homo sapiens [6]
  Activity: -19.5%
[7]
  Activity: 0.4%
[8]
  Activity: -5.8%
[9]
  Activity: -21.9%
[10]
  Activity: -5.3%
[11]
  Activity: -26.1%
[12]
  Activity: -4.1%
[13]
  Activity: -15.4%
[14]
  Activity: 0.8%
[15]
  Activity: -4.3%
[16]
  Activity: -52%
[17]
  Activity: 1.3%
[18]
  Activity: 0.4%
[19]
  IC50: 0.29 nM
Mus musculus
  inhibition: Active
[20]
  Activity: -8%
[21]
  Activity: 18.8%
[22]
  Activity: 12.4%
Homo sapiens [23]
  Activity: -51.5%
[24]
  Activity: -5.1%
[25]
  Activity: 10.8%
[26]
  Activity: -5.6%
[27]
  Activity: -6.2%
[28]
  Activity: -17.5%
[29]
  Activity: 3.3%
[30]
  Activity: 0%
[31]
  Activity: -1.6%
Homo sapiens [32]
  Activity: -2.7%
[33]
  Activity: -1.7%
Homo sapiens [34]
  Activity: -10.7%
